# Assay results from patent publication US4169096A, “Antibiotic compounds” (priority 1977, dated 1979).
# Like-named read-outs stand apart in the source and are kept apart here.
# What was measured:
# B. fragilis A20926 = assay: Localized infection with B. fragilis in mice; type: in vivo; settings: for mean score: control 4.2; for sum of score: control 21; for infectivity level: control 100%
# C. perfringens A9635 = assay: animal or person; type: in vivo, mice; settings: Clostridium perfringens, A9635, in Mus musculus, 120 h, read-out: PD50
# [1] = subcutaneous or oral
# in vivo = settings: mouse
compound,measurement,setting,value
Cc1ncc([N+](=O)[O-])n1CCO [Flagyl],mean score,"B. fragilis A20926; oral, 6.3 × 5 mg/kg",3.4
same,sum of score,"B. fragilis A20926; oral, 6.3 × 5 mg/kg",17
same,infectivity level,"B. fragilis A20926; oral, 6.3 × 5 mg/kg",81.0%
same,mean score,"B. fragilis A20926; oral, 25 × 5 mg/kg",2.6
same,sum of score,"B. fragilis A20926; oral, 25 × 5 mg/kg",13
same,infectivity level,"B. fragilis A20926; oral, 25 × 5 mg/kg",61.9%
same,mean score,"B. fragilis A20926; oral, 100 × 5 mg/kg",1.6
same,sum of score,"B. fragilis A20926; oral, 100 × 5 mg/kg",8
same,infectivity level,"B. fragilis A20926; oral, 100 × 5 mg/kg",38.1%
same,mean score,"B. fragilis A20926; oral, […] 5 mg/kg",4.0
same,sum of score,"B. fragilis A20926; oral, […] 5 mg/kg",20
same,infectivity level,"B. fragilis A20926; oral, […] 5 mg/kg",95.2%
same,mean score,"B. fragilis A20926; subcutaneous, 0.8 × 5 mg/kg",4.0
same,sum of score,"B. fragilis A20926; subcutaneous, 0.8 × 5 mg/kg",20
same,infectivity level,"B. fragilis A20926; subcutaneous, 0.8 × 5 mg/kg",95.2%
same,mean score,"B. fragilis A20926; subcutaneous, 3.1 × 5 mg/kg",3.4
same,sum of score,"B. fragilis A20926; subcutaneous, 3.1 × 5 mg/kg",17
same,infectivity level,"B. fragilis A20926; subcutaneous, 3.1 × 5 mg/kg",81.0%
same,mean score,"B. fragilis A20926; subcutaneous, 50 × 5 mg/kg",2.0
same,sum of score,"B. fragilis A20926; subcutaneous, 50 × 5 mg/kg",10
same,infectivity level,"B. fragilis A20926; subcutaneous, 50 × 5 mg/kg",47.6%
same,mean score,"B. fragilis A20926; subcutaneous, […] 5 mg/kg",2.4
same,sum of score,"B. fragilis A20926; subcutaneous, […] 5 mg/kg",12
same,infectivity level,"B. fragilis A20926; subcutaneous, […] 5 mg/kg",57.1%
same,ED50,C. perfringens A9635; po,60 mg/kg
same,ED50,C. perfringens A9635; sc,31 mg/kg
same,absorption compared with Bu-2313B,[1],better absorptions than Bu-2313B
same,concentration at 0.5 h,"in vivo; po, 25 mg/kg",8800 ng/mL
same,concentration at 1 h,"in vivo; po, 25 mg/kg",6700 ng/mL
same,concentration at 3 h,"in vivo; po, 25 mg/kg",6100 ng/mL
same,concentration at 0.5 h,"in vivo; po, 50 mg/kg",20000 ng/mL
same,concentration at 1 h,"in vivo; po, 50 mg/kg",15000 ng/mL
same,concentration at 3 h,"in vivo; po, 50 mg/kg",11000 ng/mL
same,concentration at 0.5 h,"in vivo; po, 100 mg/kg",56000 ng/mL
same,concentration at 1 h,"in vivo; po, 100 mg/kg",41000 ng/mL
same,concentration at 3 h,"in vivo; po, 100 mg/kg",24000 ng/mL
same,concentration at 5 h,"in vivo; po, 100 mg/kg",13000 ng/mL
same,concentration at 0.5 h,"in vivo; sc, 25 mg/kg",15000 ng/mL
same,concentration at 1 h,"in vivo; sc, 25 mg/kg",12000 ng/mL
same,concentration at 2 h,"in vivo; sc, 25 mg/kg",8300 ng/mL
same,concentration at 0.5 h,"in vivo; sc, 50 mg/kg",32000 ng/mL
same,concentration at 1 h,"in vivo; sc, 50 mg/kg",26000 ng/mL
same,concentration at 2 h,"in vivo; sc, 50 mg/kg",12000 ng/mL
same,concentration at 0.5 h,"in vivo; sc, 100 mg/kg",121000 ng/mL
same,concentration at 1 h,"in vivo; sc, 100 mg/kg",98000 ng/mL
same,concentration at 2 h,"in vivo; sc, 100 mg/kg",40000 ng/mL
